The nature of data set [1]: Cytotoxicity against human HepG2 cells assessed as cell viability at 0.1 uM. The following applies: read-out: Activity. The class given is toxicity, cell-based.
Data set [2] is described as follows: Induction of insulin-sensitizing activity in insulin-resistant mouse 3T3-L1 cells assessed as glucose consumption at 0.1 uM (reference value: 3.354 +/- 0.342 mM). The class given is functional.
Data set [3] can be described thus: Induction of insulin-sensitizing activity in insulin-resistant mouse 3T3-L1 cells assessed as increase in glucose consumption at 0.1 uM relative to control. The class given is functional.
Data set [4] has as its target T1, Peroxisome proliferator-activated receptor gamma (Homo sapiens) (UniProt P37231).
T1 sequence (whole entry): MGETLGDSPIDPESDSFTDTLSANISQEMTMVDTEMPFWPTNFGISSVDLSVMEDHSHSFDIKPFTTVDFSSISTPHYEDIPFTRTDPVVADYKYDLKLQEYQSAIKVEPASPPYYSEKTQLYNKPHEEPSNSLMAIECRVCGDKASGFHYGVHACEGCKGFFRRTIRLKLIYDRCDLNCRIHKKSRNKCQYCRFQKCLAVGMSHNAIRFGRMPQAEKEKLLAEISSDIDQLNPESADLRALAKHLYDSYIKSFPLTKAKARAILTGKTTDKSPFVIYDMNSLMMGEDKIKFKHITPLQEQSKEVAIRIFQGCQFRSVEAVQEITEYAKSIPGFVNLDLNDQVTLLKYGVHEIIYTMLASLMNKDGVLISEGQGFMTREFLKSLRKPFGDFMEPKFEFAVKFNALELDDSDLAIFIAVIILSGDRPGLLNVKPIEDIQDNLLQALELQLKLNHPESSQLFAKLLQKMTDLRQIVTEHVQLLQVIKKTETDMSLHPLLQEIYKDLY
Description: Antagonist activity at PPAR-gamma (unknown origin) transfected in human HEK293 cells assessed as decrease in rosiglitazone-induced receptor transactivation at 1 uM by dual-luciferase reporter gene assay relative to control. The class given is cell-based.

In data set [5] the target is T1, Peroxisome proliferator-activated receptor gamma (Homo sapiens). Description: Antagonist activity at PPAR-gamma (unknown origin) transfected in human HEK293 cells assessed as decrease in rosiglitazone-induced receptor transactivation at 10 uM by dual-luciferase reporter gene assay relative to control. The class given is cell-based. (A reporter such as luciferase makes a cellular process visible.)

Data set [6] in a line: Induction of insulin-sensitizing activity in insulin-resistant human HepG2 cells assessed as glucose consumption at 0.1 uM (reference value: 5.83 +/-0.101 mM). The format is functional.
The nature of data set [7]: Induction of insulin-sensitizing activity in insulin-resistant human HepG2 cells assessed as increase in glucose consumption at 0.1 uM relative to control. The format is functional.

As to `COc1cc(O)c(C(=O)O)c(CC(=O)c2cccc(-c3ccsc3)c2)c1CC=C(C)C`, the viability at 0.1 µM in data set [1] was under 80%. Further, the Activity was determined as 6.404 mM in data set [2], 70.82% in data set [3], 6.047 mM in data set [6] and 3.71% in data set [7]. Moreover, the figures for the inhibition in data set [4] and in data set [5] (filed as antagonist) were 24.3% and 43.7%, respectively.
Regarding `O=C(Nc1ccccc1)c1cc([N+](=O)[O-])ccc1Cl`, the inhibition (as a rule, the relative decrease from the control value, in per cent) in data set [4] came to 10.9%; in data set [5] (filed as antagonist) it was 99.1%.
As for `COc1cc(O)c(C(=O)O)c(CC(=O)c2cccc(-c3ccc(F)cc3)c2)c1CC=C(C)C`, the Activity in data set [2] is 6.637 mM; in data set [3], 77.02%; in data set [6], 7.564 mM; in data set [7], 29.73%. In addition, the values for the inhibition in data set [4] and in data set [5] (filed as antagonist) were 16% and 66%, respectively.
Take `COc1ccc(-c2cccc(C(=O)Cc3c(CC=C(C)C)c(OC)cc(O)c3C(=O)O)c2)cc1`: the Activity in data set [2] amounted to 7.69 mM; in data set [3], 105.12%; in data set [6], 7.252 mM; in data set [7], 24.38%. Also, the inhibition in data set [4] was found to be 36.9%; in data set [5] (filed as antagonist), 79.5%.
Regarding `COc1cc(CC(=O)c2cccc(-c3ccsc3)c2)c(C(=O)O)c(O)c1CC=C(C)C`, the Activity in data set [2] came to 8.145 mM; in data set [3] it was 117.26%; in data set [6], 8.126 mM; in data set [7], 39.36%. Also, the inhibition in data set [4] stood at 7.7%; in data set [5] (filed as antagonist), 47.7%.
In the case of `COc1cc(CC(=O)c2cccc(-c3cccc(C(F)(F)F)c3)c2)c(C(=O)O)c(O)c1CC=C(C)C`, the Activity in data set [2] was 5.151 mM; in data set [3] it was 37.4%; in data set [6], 8.649 mM; in data set [7], 48.32%. For the same molecule, the inhibition is -6.1% in data set [4] and 50.9% in data set [5] (filed as antagonist).
`CCc1ccc(-c2cccc(C(=O)Cc3cc(OC)c(CC=C(C)C)c(O)c3C(=O)O)c2)cc1`: the Activity in data set [2] is 7.042 mM; in data set [3], 87.84%; in data set [6], 7.93 mM; in data set [7] it was 36.01%. Moreover, the inhibition in data set [5] turned out to be 8.1%.
For `COc1ccc(-c2cccc(C(=O)Cc3cc(OC)c(CC=C(C)C)c(O)c3C(=O)O)c2)cc1` the same measures were 7.533 mM, 100.93%, 7.438 mM, 27.56% and 20.8%.
Take `COc1cc(O)c(C(=O)O)c(CC(=O)c2cccc(-c3ccnc(Cl)c3)c2)c1CC=C(C)C`: the viability at 0.1 µM in data set [1] is under 80%. Moreover, the Activity in data set [2] turned out to be 5.579 mM; in data set [3], 48.82%; in data set [6] it was 6.318 mM; in data set [7], 8.36%. For the same molecule, the inhibition in data set [4] was 19.9%; in data set [5] (filed as antagonist), 92.3%.
Take `COc1ccc(-c2cccc(C(=O)Cc3cc(OC)c(CC=C(C)C)c(O)c3C(=O)O)c2)c(F)c1`: the Activity is 6.591 mM in data set [2], 75.81% in data set [3], 7.992 mM in data set [6] and 37.05% in data set [7]. Also, the inhibition in data set [5] is 16.4%.
Consider `COc1cc(O)c(C(=O)O)c(CC(=O)c2cccc(-c3cccnc3)c2)c1CC=C(C)C`, for which the viability at 0.1 µM in data set [1] was under 80%. In addition, the Activity in data set [2] was 3.107 mM; in data set [3], -17.14%; in data set [6], 5.917 mM; in data set [7] it was 1.49%. The inhibition in data set [4] was -3.8%; in data set [5] (filed as antagonist), 82.5%.
Take `CCc1ccc(-c2cccc(C(=O)Cc3c(CC=C(C)C)c(OC)cc(O)c3C(=O)O)c2)cc1`: the Activity in data set [2] is given as 6.655 mM; in data set [3], 77.5%; in data set [6] it was 8.202 mM; in data set [7] it was 40.66%. Moreover, the inhibition in data set [4] was -8.3%; in data set [5] (filed as antagonist), 60.2%.
For `COc1cc(O)c(C(=O)O)c(CC(=O)c2cccc(-c3ccccc3C(F)(F)F)c2)c1CC=C(C)C`, the Activity stood at 5.688 mM in data set [2], 51.71% in data set [3], 8.251 mM in data set [6] and 41.5% in data set [7]. In data set [5] (filed as antagonist), the inhibition worked out at 80.1%.
Regarding `COc1cc(CC(=O)c2cccc(-c3ccnc(Cl)c3)c2)c(C(=O)O)c(O)c1CC=C(C)C`, the Activity is on record as 5.501 mM in data set [2], 46.74% in data set [3], 7.34 mM in data set [6] and 25.88% in data set [7]. In addition, the inhibition in data set [4] was found to be 12.7%; in data set [5], 11.1%.
With `COc1cc(O)c(C(=O)O)c(CC(=O)c2cccc(-c3ccc(Cl)cc3)c2)c1CC=C(C)C`, the Activity is reported as 7.257 mM in data set [2], 93.55% in data set [3], 8.091 mM in data set [6] and 38.76% in data set [7]. Besides, the inhibition is 19.3% in data set [4] and 71% in data set [5] (filed as antagonist).
Regarding `COc1ccc(-c2cccc(C(=O)Cc3c(CC=C(C)C)c(OC)cc(O)c3C(=O)O)c2)c(F)c1`, the Activity is recorded as 7.335 mM in data set [2], 95.64% in data set [3], 6.928 mM in data set [6] and 18.83% in data set [7]. The inhibition in data set [4] was -0.4%; in data set [5] (filed as antagonist), 84.7%.
`CN(CCOc1ccc(CC2SC(=O)NC2=O)cc1)c1ccccn1` (centres undefined) [ROSIGLITAZONE]: the Activity is given as 5.421 mM in data set [2], 44.58% in data set [3], 7.15 mM in data set [6] and 22.74% in data set [7].
Turning to `COc1cc(CC(=O)c2cccc(-c3ccccc3Cl)c2)c(C(=O)O)c(O)c1CC=C(C)C`, the Activity in data set [2] was 5.969 mM; in data set [3], 59.21%; in data set [6], 8.371 mM; in data set [7] it was 43.55%. The inhibition was found to be 24.1% in data set [4] and 57.5% in data set [5] (filed as antagonist).
As to `COc1cc(CC(=O)c2cccc(-c3ccc(Cl)cc3)c2)c(C(=O)O)c(O)c1CC=C(C)C`, the Activity in data set [2] came out at 7.165 mM; in data set [3], 91.12%; in data set [6], 8.138 mM; in data set [7] it was 39.56%. Further, in data set [5], the inhibition is 26.6%.
On to `COc1cc(O)c(C(=O)O)c(CC(=O)c2cccc(-c3cccc(C(F)(F)F)c3)c2)c1CC=C(C)C`, for which the Activity in data set [2] turned out to be 6.427 mM; in data set [3], 71.43%; in data set [6], 8.306 mM; in data set [7], 42.45%. The inhibition in data set [4] was -2.4%; in data set [5] it was 39.6%.
`COc1cc(O)c(C(=O)O)c(CC(=O)c2cccc(C3CC3)c2)c1CC=C(C)C`: the Activity turned out to be 5.099 mM in data set [2], 36% in data set [3], 6.002 mM in data set [6] and 2.94% in data set [7]. Further, the inhibition was 34.6% in data set [4] and 81.2% in data set [5] (filed as antagonist).
In the case of `COc1cc(CC(=O)c2cccc(-c3cccnc3)c2)c(C(=O)O)c(O)c1CC=C(C)C`, the viability at 0.1 µM in data set [1] was under 80%. Further, the Activity in data set [2] was 4.554 mM; in data set [3], 21.46%; in data set [6], 6.93 mM; in data set [7] it was 18.84%. Further, the inhibition in data set [5] turned out to be 31.7%.
As for `COc1cc(O)c(C(=O)O)c(CC(=O)c2ccccc2)c1CC=C(C)C`, the results for the inhibition in data set [4] and in data set [5] were 12.9% and 39%, respectively. In addition, the Activity is 6.729 mM in data set [6] and 20.66% in data set [7].
As to `COc1cc(O)c(C(=O)O)c(CC(=O)c2cccc(-c3ccc(C)cc3)c2)c1CC=C(C)C`, the Activity in data set [2] worked out at 7.488 mM; in data set [3], 99.73%; in data set [6], 7.492 mM; in data set [7], 28.49%. The inhibition in data set [4] came to 23.9%; in data set [5] (filed as antagonist), 64.5%.
Regarding `COc1cc(CC(=O)c2cccc(-c3ccc(C)cc3)c2)c(C(=O)O)c(O)c1CC=C(C)C`, the Activity in data set [2] came to 7.712 mM; in data set [3], 105.7%; in data set [6], 7.886 mM; in data set [7], 35.25%.
For `COc1cc(CC(=O)c2cccc(C3CC3)c2)c(C(=O)O)c(O)c1CC=C(C)C`, the Activity in data set [2] amounted to 5.686 mM; in data set [3], 51.66%; in data set [6], 6.696 mM; in data set [7] it was 14.83%. In addition, the inhibition worked out at 17.7% in data set [4] and 77.7% in data set [5] (filed as antagonist).

Values taken from ChEMBL document CHEMBL5236599, “Design, synthesis and biological evaluation of cajanonic acid A analogues as potent PPAR γ antagonists” (Bioorg Med Chem Lett, 2023).
